# Data as given in US20130123264A1, “COMPOSITIONS AND METHODS FOR TREATMENT OF INFLAMMATORY BOWEL DISORDERS AND INTESTINAL CANCERS” (priority 2011, published 2013).
# Entries after “also recorded” stand apart in the source; their conditions may differ.
# Tests used:
# [1] = system: CD1 mouse colon explants; assay: cGMP content of mucosa from mouse colon explants incubated in vitro (ELISA); assay type: cell-based; conditions: 2 hours
# Protocol: The cGMP levels were standardized for protein content using OD280 of the extracts. […] Error bars indicate SEM. Asterisks indicate significance relative to control (p<0.05). CD1 mouse colon explants were incubated with PDE5 inhibitors in vitro. After 2 hours, the mucosa was harvested for analysis of cGMP content by ELISA (FIG. 10A).
# [2] = in water; cited from earlier work
# [3] = in vivo; cited from earlier work
# [4] = system: colon mucosa; assay: Redox stress in colon mucosa by DCF fluorescence after IP treatment; assay type: in vivo, mouse; conditions: 4 h, p>0.05 by t-test (n=3)
# Protocol: After 4 h the animals were sacrificed and the colon mucosa was harvested for analysis of redox stress using DCF fluorescence. Error bars indicate standard deviation (n=3), but p>0.05 by t-test (FIG. 15B)
# (§1) Colons were removed from sacrificed animals and incubated with 20 μM DCF for 30 minutes, then homogenized and the fluorescence measured (at FITC wavelengths; 485/535 nm). Specimens were incubated directly (30 min time point), or incubated for 30 min or 90 min under standard tissue culture conditions before adding DCF for the final 30 min (60 and 120 min time points).
# [5] = system: colon mucosa of Prkg2−/− mice; assay: Colon mucosa homeostasis after 7 days of treatment in PKG2 knockout animals; assay type: in vivo, mouse
# Protocol: FIG. 16A is a bar graph of ileum, proximal and distal tissue versus cGMP (pmol/mg protein). […] Colon mucosa was harvested 3 hrs later for analysis of cGMP content with ELISA kit. cGMP level was measured relative to total protein loading. […] Same WT/KO tissues were analyzed for apoptosis (TUNEL). Error bars indicate SEM and asterisks show significance (p<0.05).
# FIGS. 17A, 17B, 17C, and 17D are line graphs of ascending, trans, and descending tissue samples versus goblet cells/crypt (17A and B) or CgA/crypt (17C and D). […] Error bars show SEM, N>3, *p<0.05, by two-tailed t-test.
# FIGS. 14A-14C show quantification of mature goblet cells in the ascending (A) and transverse colon (B) of wild type and PKG2 knockout animals. […] The increase in goblet cells observed in the wild type animals was not observed in the PKG2-deficient animals, which indicates the involvement of PKG2 in this process.
# [6] = system: HCT116 colon cancer cells; assay: cGMP content of colon cancer cells by competitive ELISA; conditions: colon cancer cell lines, 2 hours incubation
# [7] = system: colon mucosa; assay: cGMP content of colon mucosa after intraperitoneal injection (ELISA); assay type: in vivo, mouse
# Protocol: The cGMP levels were standardized for protein content using OD280 of the extracts. […] Error bars indicate SEM. Asterisks indicate significance relative to control (p<0.05). […] FIG. 16A is a bar graph of ileum, proximal and distal tissue versus cGMP (pmol/mg protein). Mice were treated by intraperitoneal injection with PBS in vehicle (ctrl) or Vardenafil in vehicle (Vard.) (equivalence to human dose based on body weight). Colon mucosa was harvested 3 hrs later for analysis of cGMP content with ELISA kit. cGMP level was measured relative to total protein loading. […] Same WT/KO tissues were analyzed for apoptosis (TUNEL). Error bars indicate SEM and asterisks show significance (p<0.05). […] The mice were sacrificed 4 hours later and colon mucosa was harvested for analysis of cGMP content by ELISA. The cGMP levels were standardized for protein content using OD280 of the extracts. The error bars show SEM (FIG. 10B).
# [8] = system: colon mucosa; assay: Colon mucosa homeostasis after 7 days of treatment (TUNEL, BrdU/Ki-67, goblet cell staining); assay type: in vivo, mouse; conditions: wild type mice, 5 mg/kg IP b.i.d. 7 days; for epithelial cell death / apoptosis (TUNEL) in colon / mature goblet cell numbers in colon: 5 mg/kg
# Text: Sections were stained for apoptotic cells using TUNEL in control and treated. TUNEL positive cells were found. […] FIG. 12B Quantitation of cell proliferation in the colon mucosa by BrdU incorporation. Asterisks in FIGS. 12A and 12B show statistical significance, p<0.05 of treated relative to control.
# Mature goblet cells were counted in different sections of the colon following staining with Alcian blue-periodic acid schiff. FIG. 11A: Different regions of the gut (ilium of small intestine, ascending and descending portions of the colon). FIG. 11B: Relative mature goblet cell number in different sections of the proximal colon. Asterisks indicate significance (p<0.05, n=3).
# Immunohistochemistry of tissue samples from Vardenafil treated and control mice was performed.
# [9] = system: DSS-induced colitis; assay: DSS-induced murine colitis model; assay type: in vivo, mouse
# Protocol: FIG. 20A is a line graph of days of treatment versus disease activity index (DAI). […] The animal weight and stool-composition (diarrhea and bleeding) were recorded daily and are shown as disease activity index. Error bars indicate SD (n=3) and asterisks denote statistical significance (p<0.05, t-test). FIG. 20B is a line graph of proximal, mid, and distal tissue samples versus TUNEL/Crypt. Some mice were sacrificed at Day 5 with DSS for pathological analysis. Descending colons of mice treated with control (Ctrl) and Vardenafil (Vard.) were harvested and stained for apoptosis (TUNEL). Positive cells were subjected to quantification and the quantified cells were graphed. Error bars indicate SEM (n=3) and asterisks denote statistical significance (p<0.05 t-test).
# Control animals were injected with PBS vehicle. After 5 days the DSS was replaced with water. Incidence and severity of diarrhea and body weight were recorded daily and combined in an index of disease severity.
# The best characterized mouse model of IBD involves administration of dextran sulfate-sodium (DSS) in the drinking water, and this is toxic specifically to luminal epithelial cells of the distal colon.
# [10] = system: JNK; assay: JNK-P in colon explants (immunoblotting); assay type: cell-based, mouse
# Protocol: The relative expression of DUSP10 was measured by RT-PCR in wild type and knockout mice (Prkg2+/+ and Prkg2−/−), LS174T and HT29 colon cancer cells with or without PKG2 expression, and in colon explants treated with 8BrcGMP. Mucosa from different parts of the mouse digestive tract were analyzed by immunoblotting for JNKP, total JNK, DUSP10 and PKG2. Immunoblotting of ileum and proximal colon explants with or without 8Br-cGMP treatment to activate PKG2 was also performed.
# [11] = system: colon explants; assay: Antioxidant gene expression in colon explants (RT-PCR, Western blotting); assay type: cell-based, mouse; conditions: 100 uM, 3-4 hours
# Protocol: Explants of proximal and distal colon from mice were treated for 3-4 hours with 100 uM 8Br-cGMP and then the mucosa was harvested for analysis of antioxidant gene and protein expression by RT-PCR and Western blotting. Blots were reprobed for b-actin expression as a loading control.
# In addition to attenuating proliferation, the activation of Foxo4 can upregulate antioxidant genes. To determine whether activation of endogenous PKG could affect the expression of antioxidant genes in the colon, explants of proximal and distal colon from mice were treated for 3-4 hours with 100 uM 8Br-cGMP and then the mucosa was harvested for analysis of antioxidant genes expression by RT-PCR or Western blotting. HPRT and b-actin were used as loading controls.
# [12] = system: colon explants; assay: Redox stress (DCF fluorescence) in colon explants; assay type: cell-based, mouse; conditions: 100 uM
# Protocol: FIG. 15A is a bar graph showing DCF fluorescence of extracts from colon explants with (cGMP, open bars) or without (control, filled bars) cGMP treatment.
# as §1
smiles,measurement,setting,value
"CCCc1nc(C)c2c(=O)[nH]c(-c3cc(S(=O)(=O)N4CCN(CC)CC4)ccc3OCC)nn12 [Vardenafil, vardenafil]",cGMP levels in mouse colon explants,[1],significantly increase
same,Solubility,[2],0.11 mg/mL
same,t1/2,[3],4 to 5 h
same,redox stress levels in the colon mucosa (DCF fluorescence),[4],partly mimic antioxidant effects of exogenous cGMP; also recorded: could indeed affect redox stress levels
same,increase in goblet cells,"[5]; PKG2-deficient animals, 5 mg/kg IP b.i.d. 7 days",not observed
same,reduction in apoptosis,"[5]; PKG2 knockouts, 5 mg/kg IP b.i.d. 7 days",not observed
same,homeostasis in Prkg2−/− animals,[5]; i.p. for several days,did not affect
same,intracellular cGMP levels,[6],significantly increased
same,cGMP in the proximal colon epithelium,"[7]; IP, lesser extent in terminal ileum and distal colon",rapidly increased
same,intracellular cGMP levels in mouse colon mucosa,"[7]; intraperitoneal injection, mucosa harvested 4 hours later",significant increase
same,"crypt proliferation (BrdU, Ki-67) in colon",[8],reduced
same,epithelial cell death / apoptosis (TUNEL) in colon,[8],reduction; also recorded: reduced
same,mature goblet cell numbers in colon,[8],dramatic increase
same,epithelial cell death / apoptosis (TUNEL) in colon,[8]; listed as vardenafil,reduced
same,mature goblet cell numbers in colon,[8]; listed as vardenafil,significantly increased
same,death of animals,"[9]; 5% DSS, n=4, half the untreated animals died",25%
same,DSS induced apoptosis (TUNEL),[9]; Day 5 with DSS,inhibited
same,DSS induced activation of JNK,"[9]; descending colon, JNK-phospho T183/Y185",inhibited
same,DUSP10 levels in the colon mucosa,[9]; wild type mice,increased
"CCCc1nn(C)c2c(=O)nc(-c3cc(S(=O)(=O)N4CCN(C)CC4)ccc3OCC)[nH]c12 [Sildenafil, sildenafil]",Solubility,[2],3.5 mg/mL
same,t1/2,[3],3 to 5 h
same,intracellular cGMP levels,[6],significantly increased
Nc1nc2c(nc(Br)n2[C@@H]2O[C@@H]3COP(=O)(O)O[C@H]3[C@H]2O)c(=O)[nH]1 [8Br-cGMP],basal activated JNK-P levels in colon explants,[10],decrease
same,antioxidant gene expression in colon explants,[11],broad increase
same,redox stress (DCF fluorescence) in colon explants,[12],decreased
"CN1CC(=O)N2[C@H](c3ccc4c(c3)OCO4)c3[nH]c4ccccc4c3C[C@@H]2C1=O [Tadalafil, tadalafil]",t1/2,[3],17.5 h
